Laboratory results reported in patent US20220160651A1, “RAPIDLY IMPROVING ENDOTHELIAL FUNCTION, REDUCING ARTERIAL STIFFNESS AND REVERSING CALCIFICATION OF BLOOD VESSELS BY ADMINISTERING VITAMIN K” (KAYDENCE PHARMA AS, priority 2019, published 2022).

Experiments:
ApoE/LDLR−/− mice [1] = experiment: MRI assessment of endothelium-dependent vasodilatation (FMD in femoral artery, Ach response in abdominal aorta), young mice (Example 3); type: in vivo
Protocol: Mice were randomly assigned to one of four experimental groups: control (untreated group) and three groups treated with vitamin K2 at a dose of 0.05, 0.5, and 5 mg/kg b.w./day, respectively. End-point measurements were performed at the age of 10-16 weeks.
Magnetic resonance imaging (MRI) experiments were performed using a 9.4T scanner (BioSpec 94/20 USR, Bruker, Germany) located in the Department of Magnetic Resonance Imaging, Institute of Nuclear Physics, Polish Academy of Sciences in Krakow. During the experiment, mice were anaesthetized using isoflurane (Aerrane, Baxter Sp. z o. o., Poland, 1.7 vol %) in an oxygen and air (1:2) mixture and imaged in the supine position. Activity of the heart, respiration, and body temperature (maintained at 37° C. using circulating warm water) were monitored using a Monitoring and Gating System (SA Inc., Stony Brook, N.Y., USA).
Endothelial function was assessed based on vascular responses to acetylcholine (Ach) administration in brachiocephalic artery (BCA), left common carotid artery (LCA) (FIGS. 6 A and B) and abdominal aorta (AA) (FIG. 6C) as well as to responses to increase in flow (flow-mediated dilatation, FMD) in femoral artery (FA) (FIG. 6D) as described in Bar A, Skorka T, Jasinski K, Sternak M, Bartel Ż, Tyrankiewicz U, et al. Retrospectively-gated MRI for in vivo assessment of endothelium-dependent vasodilatation and endothelial permeability in murine models of endothelial dysfunction. NMR Biomed 2016; 29(8):1088.; Sternak M, Bar A, Adamski M G, Mohaissen T, Marczyk B, Kieronska A, et al. The Deletion of Endothelial Sodium Channel α (αENaC) Impairs Endothelium-Dependent Vasodilation and Endothelial Barrier Integrity in Endotoxemia in Vivo. Front Pharmacol 2018; 9:178. doi:10.3389/fphar.2018.00178.; and Bar A, Olkowicz M, Tyrankiewicz U, Kus E, Jasinski K, Smolenski R T, et al. Functional and Biochemical Endothelial Profiling In Vivo in a Murine Model of Endothelial Dysfunction; Comparison of Effects of 1-Methylnicotinamide and Angiotensin-converting Enzyme Inhibitor. Front Pharmacol 2017; 8:183. doi:10.3389/fphar.2017.00183.).
Vasomotor response was examined by comparing two time-resolved 3D images of the vessels prior to and 25 minutes after intraperitoneal Ach administration (Sigma-Aldrich, Poznan Poland: 50 μl, 16.6 mg/kg), as well as prior to and 5 minutes after vessel occlusion. Images were acquired using the cine IntraGate™ FLASH 3D sequence, reconstructed with the IntraGate 1.2.b.2 macro (Bruker). End-diastolic volumes of vessels were analyzed using ImageJ software 1.46r (NIH Bethesda, Md., USA) and scripts written in Matlab (MathWorks, Natick, Mass., USA). Imaging parameters included the following: repetition time (TR)—6.4 ms, echo time (TE)—1.4 ms, field of view (FOV) −30×30×5 mm3, matrix size—256×256×30, flip angle (FA)—30°, and number of accumulations (NA)—15, reconstructed to 7 cardiac frames. Total scan time was 10 minutes.

ApoE/LDLR−/− mice [2] = experiment: Histological assessment of area and composition of atherosclerotic plaque in BCA, older mice (Example 3); type: in vivo; conditions: eight weeks
Source text: For the determination of atherosclerotic plaque area and composition isolated brachiocephalic artery (BCA) was dissected, fixed in 4% buffered formalin, and embedded in paraffin. 5 μm-thick serial sections of BCA were collected from the proximal to distal part of the artery. Staining with Unna's orcein combined with Martius, Scarlet and Blue trichrome (OMSB) was applied on every tenth section (50 μm interval between each section) for quantitative analysis of atherosclerotic plaques. The areas of particular components of atherosclerotic plaque as well as artery lumen and wall were determined after Columbus-based software processing (FIG. 9) using specially-designed algorithm as described in Gajda M, Jasztal A, Banasik T, Jasek-Gajda E, Chlopicki S. Combined orcein and martius scarlet blue (OMSB) staining for qualitative and quantitative analyses of atherosclerotic plaques in brachiocephalic arteries in apoE/LDLR−/− mice. Histochem Cell Biot 2017. doi:10.1007/s00418-017-1538-8. The parameters analyzed include vessel wall area (VWA), internal vessel area (IVA=plaque area+lumen area), plaque area (expressed as percent of internal wall area: plaque/IWA), and lumen area (expressed as percent of internal wall area: lumen/IWA).

[3] = system: kidney transplantation patients; experiment: Clinical study: non-invasive pulse wave velocity measurement of arterial stiffness; type: in vivo, human; conditions: 360 ug/day, after 8 weeks of treatment, kidney transplant patients
Protocol: Clinical Study to study the efficacy and safety of Vitamin K2 supplementation on arterial stiffness, the rigidity of arterial walls, in kidney transplantation patients.
A clinical study was carried out. Arterial wall property measurements were taken at t=0 and t=8 weeks and show a dramatic improvement in arterial wall flexibility. This is good support for concluding that the ingestion of vitamin K, even over this short period, is an effective way of improving endothelial function, reducing arterial stiffness and reducing calcification. […] It is surprising and unexpected because calcification is a slow progressive process and it was thought that reversing this process would also be slow and progressive.
Participants were enrolled in a clinical trial in which the effects of vitamin K2 were determined for patients who had recently undergone a kidney transplant. At the beginning of the study, patients were subjected to a non-invasive pulse wave velocity measurement to measure arterial stiffness/flexibility, as well as blood analysis. The study participants were then instructed to receive a specific daily dose of MenaQ7 vitamin K2 menaquinone-7 (360 ug/day) for a total of 8 weeks. At the end of 8 weeks, patients were again examined with a follow-up examination, a non-invasive pulse wave velocity measurement and blood analysis and drug treatment was discontinued.

ApoE/LDLR−/− mice [4] = experiment: Nitrite and nitrate concentration in plasma, older mice (Example 3); type: in vivo; conditions: 0.03 and 10 mg/kg b.w./day, eight weeks
[5] = 0.05 mg/kg b.w./day, eight weeks
[6] = 0.05 mg/kg b.w./day, four weeks, 15-week-old mice

## CC(C)=CCC/C(C)=C/CC/C(C)=C/CC/C(C)=C/CC/C(C)=C/CC/C(C)=C/CC/C(C)=C/CC1=C(C)C(=O)c2ccccc2C1=O [MK-7, menaquinone-7]
ApoE/LDLR−/− mice [1]; [5]
  Ach response in AA, volume changes: −0.65%
  FMD in FA, volume changes: 28.34%
ApoE/LDLR−/− mice [1]; [6]
  Ach response in AA, volume changes: −1.59%
  FMD in FA, volume changes: 33.26%
ApoE/LDLR−/− mice [1]; 0.5 mg/kg b.w./day, two weeks
  Ach response in AA, volume changes: 1.52%
  FMD in FA, volume changes: 28.57%
ApoE/LDLR−/− mice [1]; 5 mg/kg b.w./day, two weeks
  Ach response in AA, volume changes: 0.16%
  FMD in FA, volume changes: 26.55%
ApoE/LDLR−/− mice [2]; low (0.03 mg/kg b.w./day) or high dose (10 mg/kg b.w./day)
  plaque size compared with non-treated mice: not different
ApoE/LDLR−/− mice [2]; low and high dose, 24-week-old mice
  decrease in vessel wall area (VWA) of BCA: about 5%
ApoE/LDLR−/− mice [2]; low or high dose
  plaque and lumen area expressed as percent of IWA: did not change
ApoE/LDLR−/− mice [2]; lower dose
  internal wall area (IWA): decreased only in the middle part of the vessel
[3]
  mean reduction in measured pulse-wave velocity: 30%
ApoE/LDLR−/− mice [4]
  concentration of NO3− in plasma: did not change significantly
